pIC50: −log10 of the molar value.
Tests used:
Test in all cases: metalloprotease panel inhibitors: MMPs, meprins, late-stage follow-up, selectivity assay for ADAM10 and ADAM17 inhibitor project, biochemical, QFRET, MMP1/2/8/9/10/13/14, Meprin A/B (AID 743473)
[1] = biological target: MMP9; conditions: QFRET peptide cleavage, MCA fluorescence
[2] = biological target: MMP2; conditions: QFRET peptide cleavage, MCA fluorescence
[3] = biological target: Meprin B; conditions: QFRET peptide cleavage, MCA fluorescence
[4] = biological target: MMP14; conditions: QFRET peptide cleavage, MCA fluorescence
[5] = biological target: MMP10; conditions: QFRET peptide cleavage, MCA fluorescence
[6] = biological target: MMP1; conditions: QFRET peptide cleavage, MCA fluorescence
[7] = biological target: Meprin A; conditions: QFRET peptide cleavage, MCA fluorescence
[8] = biological target: Collagenase 3 (Homo sapiens) (UniProt P45452); conditions: QFRET peptide cleavage, MCA fluorescence, MMP13
[9] = biological target: MMP8; conditions: QFRET peptide cleavage, MCA fluorescence

| pIC50 [1] | pIC50 [2] | pIC50 [3] | pIC50 [4] | pIC50 [5] | pIC50 [6] | pIC50 [7] | pIC50 [8] | pIC50 [9] | SMILES |
| --- | --- | --- | --- | --- | --- | --- | --- | --- | --- |
| < 4.00 | < 4.00 | < 4.00 | < 4.00 | < 4.00 | < 4.00 | < 4.00 | < 4.00 | < 4.00 | O=C(O)CCC(=O)c1c[nH]c2ccccc12 |
| < 4.00 | < 4.00 | < 4.00 | < 4.00 | < 4.00 | 4.73 | < 4.00 | < 4.00 | 5.19 | O=C1NC(=O)C(Cc2ccc(Cl)cc2)(c2ccccc2)N1 (stereo unspecified) |
| 5.52 | 5.33 | < 4.00 | 4.43 | 4.54 | 4.12 | < 4.00 | 4.45 | 5.80 | CCOc1ccc(NC(=O)CC2SC(=O)N(c3ccccc3)C2=O)cc1 (stereo unspecified) |
| < 4.00 | < 4.00 | < 4.00 | < 4.00 | < 4.00 | < 4.00 | < 4.00 | < 4.00 | < 4.00 | COc1cccc(C(=O)NNC(=O)C(=O)Nc2ccc(C)c(Cl)c2)c1 |

Source: PubChem BioAssay AID743473 (The Scripps Research Institute Molecular Screening Center, 2014)
